Where two headings read alike, the source gives them in different places.
Assays:
[1] = target: T1, human bradykinin receptor 1 (B1R) (Homo sapiens, UniProt P46663); assay: Functional study on the bradykinin receptor 1 (B1R), human: FLIPR Ca2+ influx assay; type: cell-based
T1 construct: expressed in transfected cells; host or cells: CHO K1 cells
T1 sequence (P46663 1-353): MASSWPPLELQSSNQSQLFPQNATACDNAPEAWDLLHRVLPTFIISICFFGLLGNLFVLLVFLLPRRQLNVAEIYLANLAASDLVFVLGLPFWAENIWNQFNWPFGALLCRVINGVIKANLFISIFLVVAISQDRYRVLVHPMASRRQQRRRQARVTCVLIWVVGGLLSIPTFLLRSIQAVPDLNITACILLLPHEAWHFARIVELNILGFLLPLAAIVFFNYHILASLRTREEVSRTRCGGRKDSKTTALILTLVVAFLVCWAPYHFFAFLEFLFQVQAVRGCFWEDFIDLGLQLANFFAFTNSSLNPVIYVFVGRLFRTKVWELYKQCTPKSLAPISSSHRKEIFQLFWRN
From the text: Functional Study on the Human Bradykinin Receptor 1 (B1R)
The agonistic or antagonistic action of substances can be determined on the bradykinin receptor 1 (B1R) of the species human and rat using the following assay. According to this assay, the Ca^2+ influx through the channel is quantified with the aid of a Ca^2+-sensitive dye (Fluo-4 type, Molecular Probes Europe BV, Leiden, Netherlands) using a Fluorescent Imaging Plate Reader (FLIPR, Molecular Devices, Sunnyvale, USA).
Chinese hamster ovary cells (CHO K1 cells) which have been stably transfected with the human B1R gene (hB1R cells) or with the B1R gene of the rat (rB1R cells) are used. For functional studies, the cells are plated out on black 96-well plates having a clear base (BD Biosciences, Heidelberg, Germany or Greiner, Frickenhausen, Germany) in a density of 20,000-35,000 cells/well. The cells are incubated overnight at 37° C. and with 5% CO2 in culture medium (hB1R cells: Nutrient Mixture Ham's F12, Gibco Invitrogen GmbH, Karlsruhe, Germany or DMEM, Sigma-Aldrich, Taufkirchen, Germany; rB1R cells: D-MEM/F12, Gibco Invitrogen GmbH, Karlsruhe, Germany), with 10 vol. % FBS (fetal bovine serum, Gibco Invitrogen GmbH, Karlsruhe, Germany or PAN Biotech GmbH, Aidenbach, Germany).
On the following day, the cells are loaded for 60 minutes at 37° C. with 2.13 μM Fluo-4 (Molecular Probes Europe BV, Leiden, Netherlands) in HBSS buffer (Hank's buffered saline solution, Gibco Invitrogen GmbH, Karlsruhe, Germany) with 2.5 mM probenecid (Sigma-Aldrich, Taufkirchen, Germany) and 10 mM HEPES (Sigma-Aldrich, Taufkirchen, Germany). The plates are then washed twice with HBSS buffer, and HBSS buffer additionally containing 0.1% BSA (bovine serum albumin; Sigma-Aldrich, Taufkirchen, Germany), 5.6 mM glucose and 0.05% gelatin (Merck KGaA, Darmstadt, Germany) is added to the plates. After incubation for a further 20 minutes at room temperature, the plates are inserted into the FLIPR for Ca^2+ measurement. Alternatively, washing is carried out with buffer A (15 mM HEPES, 80 mM NaCl, 5 mM KCl, 1.2 mM CaCl2, 0.7 mM MgSO4, 2 g/l glucose, 2.5 mM probenecid) followed by loading with buffer A with added 2.5 μM Fluo-4 and 0.025% Pluronic F127 (Sigma-Aldrich, Taufkirchen, Germany). The cells are then washed twice with buffer A and incubated for 30 minutes at room temperature with buffer A additionally containing 0.05% BSA and 0.05% gelatin and are then inserted into the FLIPR for Ca^2+ measurement.
The Ca^2+-dependent fluorescence is measured before and after the addition of substances (λex=488 nm, λem=540 nm). Quantification is carried out by measuring the highest fluorescence intensity (FC, fluorescence counts) over time.
The FLIPR protocol consists of two substance additions. Test substances (10 μM) are first pipetted onto the cells and the Ca^2+ influx is compared with the control (hB1R: Lys-Des-Arg^9-bradykinin>=0.5 nM; rB1R: Des-Arg^9-bradykinin 10 μM). This gives the activation in %, based on the Ca^2+ signal after addition of Lys-Des-Arg^9-bradykinin (>=0.5 nM) or Des-Arg^9-bradykinin (10 μM).
After 10-20 minutes' incubation, Lys-Des-Arg^9-bradykinin (hB1R) or Des-Arg^9-bradykinin (rB1R) is applied in the concentration of the EC80, and the influx of Ca^2+ is likewise determined.
Antagonists lead to suppression of the Ca^2+ influx. The % inhibition compared with the maximum achievable inhibition is calculated.
In order to determine the IC50 value, the substances are added in various concentrations. Duplicate or triplicate determinations (n=2 or n=3) are carried out, and these are repeated in at least one further independent experiment (N>=2).

[2] = target: T2, bradykinin receptor 1 (B1R) of the rat (Rattus norvegicus, UniProt P97583); assay: Functional study on the bradykinin receptor 1 (B1R), rat: FLIPR Ca2+ influx assay; type: cell-based
T2 construct: expressed in transfected cells; host or cells: CHO K1 cells
T2 sequence (P97583 1-337): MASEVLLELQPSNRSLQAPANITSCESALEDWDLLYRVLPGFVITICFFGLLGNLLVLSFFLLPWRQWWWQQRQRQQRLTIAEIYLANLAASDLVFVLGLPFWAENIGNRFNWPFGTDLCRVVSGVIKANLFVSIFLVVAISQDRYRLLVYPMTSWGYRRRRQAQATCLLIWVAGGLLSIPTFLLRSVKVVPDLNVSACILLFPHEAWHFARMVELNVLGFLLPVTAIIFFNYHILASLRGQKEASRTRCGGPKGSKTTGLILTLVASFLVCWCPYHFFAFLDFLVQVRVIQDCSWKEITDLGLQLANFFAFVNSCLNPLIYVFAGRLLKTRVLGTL
Method in brief: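 CHO K1 cells stably expressing rat B1R, Fluo-4-loaded, read on FLIPR (ex 488/em 540 nm, peak fluorescence). Test substances added first (agonism vs 10 μM Des-Arg9-bradykinin), then after 10-20 min Des-Arg9-bradykinin at EC80; % inhibition and IC50 from concentration series, n=2-3, N≥2.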

[3] = test substance 10 μM, CHO K1 cells transfected with human B1R, Lys-Des-Arg9-bradykinin at EC80, Ca2+ influx (Fluo-4, FLIPR), read-out: B1R antagonism, human [10 μM] % inhibition
[4] = test substance 10 μM, CHO K1 cells transfected with rat B1R, Des-Arg9-bradykinin at EC80, Ca2+ influx (Fluo-4, FLIPR), read-out: B1R antagonism, rat [10 μM] % inhibition

SMILES	inhibition at 10 µM [1, 3] [%]	inhibition at 10 µM [2, 4] [%]	inhibition at 10 µM ([1]; CHO-K1, read-out: B1R antagonism, human [10 μM] % inhibition) [%]	inhibition at 10 µM ([2]; CHO-K1, read-out: B1R antagonism, rat [10 μM] % inhibition) [%]
CN(C)C(c1ccc(Cl)cc1)C1CCC(CCNC(=O)c2ccccc2N(C)S(=O)(=O)c2ccc(Cl)c(Cl)c2)CC1 (stereo not shown) [Example 43, N-(2-{4-[(4-chloro-phenyl)-dimethylamino-methyl]-cyclohexyl}-ethyl)-2-[(3,4-dichloro-benzenesulfonyl)-methyl-amino]-benzamide]	28.9	11		
CN(C)C(c1ccc(Cl)cc1)C1CCC(CNC(=O)c2ccccc2N(C)S(=O)(=O)c2ccc(Cl)c(Cl)c2)CC1 (stereo not shown) [Example 41, N-{4-[(4-chloro-phenyl)-dimethylamino-methyl]-cyclohexylmethyl}-2-[(3,4-dichloro-benzenesulfonyl)-methyl-amino]-benzamide]	22	25		
CN(C)C(c1ccc(Cl)cc1)C1CCC(CCNC(=O)CC2c3ccccc3CCN2S(=O)(=O)c2ccc(Cl)c(Cl)c2)CC1 (stereo not shown) [Example 33, N-(2-{4-[(4-chloro-phenyl)-dimethylamino-methyl]-cyclohexyl}-ethyl)-2-[2-(3,4-dichloro-benzenesulfonyl)-1,2,3,4-tetrahydro-isoquinolin-1-yl]-acetamide]	42.2	18		
CN(C)C(CCc1ccccc1)C1CCC(NC(=O)C2Cc3ccccc3N2S(=O)(=O)c2ccc(Cl)c(Cl)c2)CC1 (stereo not shown) [Example 93, 1-(3,4-dichlorophenylsulfonyl)-N-(4-(1-(dimethylamino)-3-phenylpropyl)cyclohexyl)indoline-2-carboxamide]	15.5	-24		
CN(C)C(c1ccccc1)C1CCC(NC(=O)c2ccccc2N(C)S(=O)(=O)c2ccc(Cl)c(Cl)c2)CC1 (stereo not shown) [Example 11, 2-[(3,4-dichloro-benzenesulfonyl)-methyl-amino]-N-[4-(dimethylamino-phenylmethyl)-cyclohexyl]-benzamide]			85.5	107
CN(C)C(c1ccc(Cl)cc1)C1CCC(CNC(=O)CC2c3ccccc3CCN2S(=O)(=O)c2ccc(Cl)c(Cl)c2)CC1 (stereo not shown) [Example 32, N-{4-[(4-chloro-phenyl)-dimethylamino-methyl]-cyclohexylmethyl}-2-[2-(3,4-dichloro-benzenesulfonyl)-1,2,3,4-tetrahydro-isoquinolin-1-yl]-acetamide]	10.7	15		
COc1ccc(S(=O)(=O)N2CCc3ccccc3C2CC(=O)NCC2CCC(C(c3cccc(F)c3)N(C)C)CC2)cc1 (stereo not shown) [Example 16, N-{4-[dimethylamino-(3-fluoro-phenyl)-methyl]-cyclohexylmethyl}-2-[2-(4-methoxy-benzenesulfonyl)-1,2,3,4-tetrahydro-isoquinolin-1-yl]-acetamide]	35.5	57		
COc1ccc(S(=O)(=O)N2CCc3ccccc3C2CC(=O)NC2CCC(C(c3ccc(F)cc3)N(C)C)CC2)cc1 (stereo not shown) [Example 14, N-{4-[dimethylamino-(4-fluoro-phenyl)-methyl]-cyclohexyl}-2-[2-(4-methoxybenzenesulfonyl)-1,2,3,4-tetrahydro-isoquinolin-1-yl]-acetamide]	86.9	75		
CN(C)C(c1ccccc1)C1CCC(CNC(=O)c2ccccc2N(C)S(=O)(=O)c2ccc(Cl)c(Cl)c2)CC1 (stereo not shown) [Example 38, 2-[(3,4-dichloro-benzenesulfonyl)-methyl-amino]-N-[4-(dimethylamino-phenylmethyl)-cyclohexylmethyl]-benzamide]	17.9	15		
CN(C)C(c1ccc(F)cc1)C1CCC(CNC(=O)c2ccccc2N(C)S(=O)(=O)c2ccc(Cl)c(Cl)c2)CC1 (stereo not shown) [Example 40, 2-[(3,4-dichloro-benzenesulfonyl)-methyl-amino]-N-{4-[dimethylamino-(4-fluoro-phenyl)-methyl]-cyclohexylmethyl}-benzamide]	17.1	20		
CN(C)C(c1ccccc1)C1CCC(CNC(=O)C2Cc3ccccc3N2S(=O)(=O)c2ccc(Cl)c(Cl)c2)CC1 (stereo not shown) [Example 95, 1-(3,4-dichlorophenylsulfonyl)-N-((4-((dimethylamino)(phenyl)methyl)cyclohexyl)methyl)indoline-2-carboxamide]	18.6	-15		
COc1ccc(S(=O)(=O)N2CCc3ccccc3C2CC(=O)NC2CCC(C(c3cccs3)N(C)C)CC2)cc1 (stereo not shown) [Example 15, N-[4-(dimethylamino-thiophen-2-yl-methyl)-cyclohexyl]-2-[2-(4-methoxybenzenesulfonyl)-1,2,3,4-tetrahydro-isoquinolin-1-yl]-acetamide]	44.6	57		
COc1ccc(S(=O)(=O)N2CCc3ccccc3C2CC(=O)NC2CCC(C(c3cccc(F)c3)N(C)C)CC2)cc1 (stereo not shown) [Example 13, N-{4-[dimethylamino-(3-fluoro-phenyl)-methyl]-cyclohexyl}-2-[2-(4-methoxybenzenesulfonyl)-1,2,3,4-tetrahydro-isoquinolin-1-yl]-acetamide]	64.4	76		
CN(C)C(c1cccc(F)c1)C1CCC(CCNC(=O)CC2c3ccccc3CCN2S(=O)(=O)c2ccc(Cl)c(Cl)c2)CC1 (stereo not shown) [Example 34, 2-[2-(3,4-dichloro-benzenesulfonyl)-1,2,3,4-tetrahydro-isoquinolin-1-yl]-N-(2-{4-[dimethylamino-(3-fluoro-phenyl)-methyl]-cyclohexyl}-ethyl)-acetamide]	71.2	41		

Reference: US8119633B2, “Substituted sulfonamide compounds” (Gruenenthal GmbH, priority 2007, dated 2012)
